These are literature values, as cited in US20230404885A1, “EPIDERMAL STEM CELL PROLIFERATION-PROMOTING AGENT” (Shiseido Company, Ltd., priority 2020, published 2023).

One data set concerns the target T1, heparanase (Homo sapiens, UniProt Q9Y251).
T1 sequence (Q9Y251 36-543): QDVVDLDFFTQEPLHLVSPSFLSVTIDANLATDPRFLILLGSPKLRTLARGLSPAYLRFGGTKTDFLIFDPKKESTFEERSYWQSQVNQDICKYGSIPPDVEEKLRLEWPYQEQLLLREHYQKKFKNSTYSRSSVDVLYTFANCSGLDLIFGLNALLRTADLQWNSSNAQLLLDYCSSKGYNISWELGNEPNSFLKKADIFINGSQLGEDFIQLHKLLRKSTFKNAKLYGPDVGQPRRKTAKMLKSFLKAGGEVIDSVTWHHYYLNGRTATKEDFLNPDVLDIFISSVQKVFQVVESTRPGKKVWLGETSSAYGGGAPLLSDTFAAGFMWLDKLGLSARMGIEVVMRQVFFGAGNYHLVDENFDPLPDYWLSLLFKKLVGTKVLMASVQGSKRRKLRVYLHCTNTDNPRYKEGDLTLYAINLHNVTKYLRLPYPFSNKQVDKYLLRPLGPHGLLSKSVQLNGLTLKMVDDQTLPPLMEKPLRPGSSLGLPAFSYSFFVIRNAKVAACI
Particulars: known, see JP 2014-111640.

In a further data set the target is T2, MMP-1 (Homo sapiens, UniProt P03956).
T2 sequence (P03956 100-469): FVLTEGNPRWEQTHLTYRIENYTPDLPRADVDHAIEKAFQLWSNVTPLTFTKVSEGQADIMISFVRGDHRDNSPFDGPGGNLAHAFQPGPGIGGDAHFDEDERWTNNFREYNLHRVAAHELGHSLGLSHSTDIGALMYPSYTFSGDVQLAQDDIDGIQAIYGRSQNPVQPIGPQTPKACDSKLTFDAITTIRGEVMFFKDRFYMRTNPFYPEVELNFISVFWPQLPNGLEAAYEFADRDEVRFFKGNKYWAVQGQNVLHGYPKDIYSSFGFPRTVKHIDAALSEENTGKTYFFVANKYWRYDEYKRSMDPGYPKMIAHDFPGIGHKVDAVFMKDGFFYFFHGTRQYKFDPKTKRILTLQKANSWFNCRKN
The following applies: known.

A further data set concerns the target MMP-9 (Homo sapiens, UniProt P14780). Particulars: known.
A further data set has as its target T3, MMP-2 (Homo sapiens, UniProt P08253).
T3 sequence (P08253 110-660): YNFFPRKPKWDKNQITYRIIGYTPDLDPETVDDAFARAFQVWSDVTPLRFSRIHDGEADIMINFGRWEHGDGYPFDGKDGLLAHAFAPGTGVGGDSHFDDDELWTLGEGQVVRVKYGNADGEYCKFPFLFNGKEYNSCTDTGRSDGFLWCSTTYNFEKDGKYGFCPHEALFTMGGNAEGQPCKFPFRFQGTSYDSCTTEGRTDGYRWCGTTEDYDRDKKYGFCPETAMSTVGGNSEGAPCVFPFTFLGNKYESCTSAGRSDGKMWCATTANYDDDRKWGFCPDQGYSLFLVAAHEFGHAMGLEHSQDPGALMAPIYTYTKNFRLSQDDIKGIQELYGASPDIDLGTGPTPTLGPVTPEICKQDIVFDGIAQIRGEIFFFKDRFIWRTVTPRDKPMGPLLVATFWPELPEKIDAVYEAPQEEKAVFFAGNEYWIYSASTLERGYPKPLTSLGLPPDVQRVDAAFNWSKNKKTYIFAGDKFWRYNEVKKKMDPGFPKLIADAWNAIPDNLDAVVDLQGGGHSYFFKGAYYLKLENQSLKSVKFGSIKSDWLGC
Particulars: known.

Sequence of MMP-9 (P14780 94-707): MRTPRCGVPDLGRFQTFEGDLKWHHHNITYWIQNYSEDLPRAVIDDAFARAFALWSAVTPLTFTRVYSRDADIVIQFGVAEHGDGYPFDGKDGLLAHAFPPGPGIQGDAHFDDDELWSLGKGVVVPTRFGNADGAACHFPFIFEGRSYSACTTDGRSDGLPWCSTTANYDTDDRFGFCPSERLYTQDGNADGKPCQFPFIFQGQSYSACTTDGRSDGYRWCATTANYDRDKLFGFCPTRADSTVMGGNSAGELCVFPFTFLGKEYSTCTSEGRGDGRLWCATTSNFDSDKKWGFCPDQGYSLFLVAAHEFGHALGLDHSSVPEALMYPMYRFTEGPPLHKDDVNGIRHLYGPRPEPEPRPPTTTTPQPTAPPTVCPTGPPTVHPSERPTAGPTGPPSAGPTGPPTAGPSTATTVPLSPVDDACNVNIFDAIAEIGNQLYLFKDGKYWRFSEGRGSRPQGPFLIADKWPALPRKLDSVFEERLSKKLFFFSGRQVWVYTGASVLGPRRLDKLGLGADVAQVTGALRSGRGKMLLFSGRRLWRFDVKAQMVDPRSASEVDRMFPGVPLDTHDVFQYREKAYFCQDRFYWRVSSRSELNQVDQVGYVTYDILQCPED

For `O=C1NCCN1CCO` [S173, 1-(2-hydroxyethyl)-2-imidazolidinone], the heparanase activity inhibition entry at heparanase is “inhibitors of the heparanase activity”. Also, the “effect on activity of MMP-1” value on MMP-1 is listed as “does not affect”. Also, the MMP-9 inhibition entry at MMP-9 is reported as “inhibits”. On MMP-2, the “effect on activity of MMP-2” value is “does not affect”.
